Measured values as given in ChEMBL document CHEMBL4316625, “Double prodrugs of a fosmidomycin surrogate as antimalarial and antitubercular agents” (Bioorg Med Chem Lett, 2019).

Tested on: Mycobacterium tuberculosis
Assay: Antitubercular activity against Mycobacterium tuberculosis H37Ra ATCC 25177 transformed with pSMT1 luciferase reporter plasmid reduction in bacterial multiplication incubated for 7 days by luminometric assay
Type: functional, organism-based
Conditions: H37Ra ATCC 25177, 168 h

Row | SMILES | MIC
1 | CN(OC(=O)Nc1ccccc1)C(=O)CCCP(=O)(OCOC(=O)C(C)(C)C)OCOC(=O)C(C)(C)C | > 64 µM
2 | CC(=O)ON(C)C(=O)CCCP(=O)(OCOC(=O)C(C)(C)C)OCOC(=O)C(C)(C)C | > 64 µM
